Data reported in patent US20230202997A1, “CHROMANOL, QUINONE OR HYDROQUINONE COMPOUNDS FOR TREATMENT OF SEPSIS” (Sulfateq B.V., priority 2020, published 2023).

Tests used:
[1] = system: plasma levels of IL-6, TNF-α and IL12; assay: CLP sepsis model, plasma cytokines by ELISA; format: in vivo; conditions: CLP mice; SUL-138 5 mg/kg s.c. 2 h before and 8 h after surgery; 24 hours
Protocol: To induce sepsis, the standard cecal ligation and puncture (CLP) model was used. Animals were anesthetized by subcutaneous injection of xylazine/ketamine (100/10 mg/kg), followed by administration of buprenorphine (0.1 mg/kg) as analgesic. After confirmation of anesthesia by lack of response to paw pinch and eye reflex, the abdomen was shaved, cleaned, and de-germed using a povidone-iodine solution before a 1-cm midline incision was made. The cecum was ligated with a 6-0 suture at half the distance between distal pole and the base of the cecum and punctured once with a 21-Gauge needle (‘through-and-through’ from mesenteric toward anti-mesenteric direction) which is an accepted model for ‘mid-grade’ sepsis. A small amount of stool (2-3 mm) was then extruded to ensure wound patency. The cecum was repositioned, thereby taking care not to spill fecal material on the wound edges, followed by closure of the abdomen by running sutures to the abdominal musculature and short interrupted sutures to the skin. Next, 1 ml of saline (warmed, 0.9% NaCl s.c.) was administered to compensate for the expected relative volume depletion due to the onset of sepsis.
Mice in the SUL-138 treated groups were injection with SUL-138 (dissolved in saline, 5 mg/kg, s.c.) at 2 hours before and 8 hours after surgery, while mice in the other groups were injected with an equal volume of saline at these time-points.
Mice were sacrificed 24 hours after the procedure. Upon euthanization, EDTA-anticoagulated blood was separated into plasma by centrifugation at 1,600 g for 10 min and serum by allowing it to clot for 30 min followed by centrifugation at 3,000 g for 10 min.
To quantify the effect of sepsis severity and treatment with SUL-138 on systemic inflammation, levels of TNFα, IL-6 and IL-12 in plasma were measured using Mouse DuoSet ELISAs (DY410, DY406 and D419, respectively, RnD-Systems), according to the manufacturer's instructions. […] The optical density (OD) was measured using a microplate reader set to 450 nm, while readings at 540 nm were subtracted as correction to increase accuracy.

HUVEC [2] = assay: HUVEC cell survival after 48 hours LPS (Cyquant); format: cell-based, Human; conditions: 48 hours with LPS, SUL-138 pre-incubation
Protocol: (§1) Human Umbilical Vein Endothelial cells (HUVEC) were obtained from the RuG/UMCG Endothelial Cell Facility. Primary isolates of umbilical cords were mixed and subsequently cultured on HUVEC culture medium, consisted of RPMI 1640 (Lonza, art.nr. BE12-115F) supplemented with 20% heat-inactivated fetal calf serum (ThermoFisher Scientific, art.nr. 10082147), 2 mM 1-glutamine (Life Technologies art.nr. 25030), 5 U/ml heparin (Leo Pharmaceutical Products), 1% Penicillin/Streptomycin (Sigma-Aldrich art.nr. P4333), and 50 μg/ml EC growth factor supplement from (Sigma-Aldrich, art.nr. E2759).
(§2) Primary HUVECs were cultured in 75-cm2 tissue culture flasks (Corning, art.nr. 430720U) at 37° C. under 5% CO2/95% air. HUVECs were used for experiments up to passage 8. Experiments were performed in 6-well (Corning art.nr. 3506) or 96-well culture plates (Corning, art.nr. 3596), at 80% confluency. Cells were stimulated with LPS E. coli 0111:B4 (Sigma-Aldrich, art.nr. L2630) in different concentrations. Cells were detached with trypsin (Sigma-Aldrich, art.nr. 25300054). All compounds were dissolved in Hanks Balanced Salt Solution (Lonza, art.nr. 10-527F).
(§3) HUVECs were pre-incubated with SUL-138 in an amount of 10 microgram/ml, which was added one hour prior to LPS-stimulation. Such pre-incubation is the standard in in vitro models.

IL-6 mRNA expression = assay: Inhibition of LPS-induced IL-6 mRNA expression in HUVEC; format: cell-based, Human; conditions: 10 μM for 30 min, then LPS 24 hours
Protocol: Human Umbilical Cord Endothelial Cells (HUVEC, Lonza CC-2519) were maintained on 1% gelatin-coated culture flasks in RPMI1640 medium containing 20% fetal bovine serum, 2 mM Glutamine (Sigma-Aldrich), 1% Penicillin-Streptomycin solution (Sigma-Aldrich) and 50 μg/ml Bovine Pituitary Extract (Invitrogen). HUVEC were passaged by trypsinization when the cultures reach a confluency of 70%. For all experiments, HUVEC were seeded at 0.6·10^5 cells/cm^2 and allowed to adhere for 24 hours.
HUVEC and NRK52E cells were pre-incubated with SUL compounds (10 μM) for 30 min and subsequently exposed to LPS for 24 hours under standard culture conditions. Cells were lysed in triZOL reagens (Invitrogen) and total RNA isolated according to manufacturers' instruction. 1 μg total RNA per sample was reverse transcribed using the FirstAid Reverse Transcription Kit (ThermoFisher). Copy-DNA equivalents of 5 ng total RNA were amplified on a ViiA7 Real-time PCR system (ThermoFisher, Waltham, Mass.) using iTaq Universal SYBR Green Supermix (Bio-Rad, Hercules, Calif.) and primers specific for tumor necrosis factor alpha, interleukin 1 beta, interleukin-6 and beta actin as loading control. Amplification was performed for 40 cycles of 95° C. for 30 s, 60° C. for 1 min. Relative mRNA expression was calculated as 2^−(Cq^gene^−Cq^reference^) and normalized to unstimulated control cells (100% inhibition) and vehicle-treated and LPS exposed cells (0% inhibition). The following primers were used: […]

HUVEC [3] = assay: LPS-challenged HUVEC respiration (uncoupled state, CCCP); format: cell-based, Human; conditions: 10 ug/ml LPS, SUL-138 added one hour prior to LPS
Protocol: as §1, §2, §3

Cc1c(C)c2c(c(C)c1O)CC[C@@](C)(C(=O)N1CCN(CCO)CC1)O2 [SUL-138, (S)-(6-hydroxy-2,5,7,8-tetramethylchroman-2-yl)(4-(2-hydroxyethyl)piperazin-1-yl)methanone]
plasma level of IL12 [1]: decreased by treatment with SUL-138 to levels close to untreated control | plasma level of IL-6 [1]: decreased by treatment with SUL-138 to levels close to untreated control | plasma level of TNF-α [1]: clearly lower, but the difference did not reach significance | cell survival (Cyquant) (HUVEC [2]): restores cell survival after 48 hours | inhibition of LPS-induced mRNA expression of IL-6 (IL-6 mRNA expression): 68.3 ± 6.7 % | uncoupled respiration (CCCP) (HUVEC [3]): almost restores the uncoupled respiration
